Experimental findings from US20080200531A1, “CDKI pathway inhibitors as inhibitors of tumor cell growth” (priority 2006, published 2008) are described below.

Test [1] concerns NFκB p50 and p65 subunits. Kind of test: TransAM NFκB p65 and p50 Chemi Transcription Factor Assay (oligonucleotide binding). To be noted: TNFα-induced or basal. The format is cell-based. The text has this:
We also tested if these compounds could act as the inhibitors of NFκB, by measuring cellular levels of p50 or p65 subunits binding oligonucleotides containing NFκB consensus binding site, using ACTIVE MOTIF TransAM™ NFκB p65 Chemi and NFκB p50 Chemi Transcription Factor Assay Kits.

Test [2] has as its system WI-38 and BJ-EN fibroblasts vs HT1080, HCT116, C33-A, Calu-6. Kind of test: 3-day growth inhibition assay (Hoechst 33342), normal fibroblasts vs tumor cell lines. Particulars: 3-day assay, WI-38, BJ-EN vs HT1080, HCT116, C33-A.
Protocol: (§1) The assays were carried out in 96-well plates, in triplicates; the plated cell numbers for each cell line were determined in preliminary experiments to assure exponential growth over the 3-day period of the assay. The cell numbers were measured by staining DNA of attached cells with Hoechst 33342, and the results for each dose were expressed as the decrease in cell number relative to untreated cells. For some of the tumor/normal cell line combinations, the assays were repeated using CellTiter-Glo viability assay (Promega), with the same results.
Test [3] deals with HMEC primary cultures, MCF-7 and MDA231. Kind of test: 3-day growth inhibition assay (Hoechst 33342), normal mammary epithelial cells vs breast carcinoma lines. Particulars: 3-day assay; HMEC vs MCF-7 and MDA231.
Protocol: as §1
The test system of test [4] is isogenic human fibroblast cell lines (untransformed, partially transformed, fully transformed). Briefly: Dose-dependent growth inhibition of three isogenic human fibroblast cell lines with increasing neoplastic transformation. The format is cell-based. To be noted: 3-day assay, Hoechst 33342. The text has this: To determine if tumor-specific growth inhibitory activity of SNX9 class compounds could be due to the inhibition of a specific CDK, we took advantage of the availability of selective inhibitors for some of the CDK proteins. Among these enzymes, CDK1, CDK2 and CDK4/CDK6 (the latter two CDKs are closely related to each other and interact with the same class of cyclins), have been used as targets for developing specific inhibitors, with potential anticancer activity. In contrast, CDK3 has not been used as a target for developing selective inhibitors. We have obtained commercially available selective inhibitors of CDK1 (CGP74514A) (Calbiochem Cat. No. 217696), CDK2 (CVT-313) (Calbiochem Cat. No. 238803), and CDK4 (NSC 625987) (Calbiochem Cat. No. 219477), and tested them, along with a broad-specificity CDK inhibitor flavopiridol, and with SNX14, SNX9 and SNX9-1, for growth inhibition of normal and transformed fibroblasts.
This analysis was done using a set of three isogenic human fibroblast cell lines with increasing degrees of neoplastic transformation (immortal but untransformed, partially transformed, and fully transformed).

In test [5] the test system is p21-induced CMV-GFP expression (CDKI pathway). Kind of test: CMV-GFP reporter assay for p21-induced transcription (HTS) in HT1080 p21-9 derived reporter cell line. The format is cell-based, human. To be noted: libraries screened at 20 μM. The source says:
As described in a co-pending patent application PCT/US06/0 1046, we have developed a high-throughput screening (HTS) procedure for compounds inhibiting the CDKI pathway. This procedure utilizes a highly sensitive reporter cell line that was generated by infecting HT1080 p21-9 cells, a derivative of HT1080 fibrosarcoma cells that express p21 from a promoter induced by a physiologically neutral β-galactoside IPTG (isopropyl-β-thio-galactoside) with a lentiviral vector that expresses Green Fluorescent Protein (GFP) from the CDKI-inducible cytomegalovirus (CMV) promoter, followed by subcloning of GFP positive cells and monitoring the induction of GFP expression by IPTG. A cell line showing approximately 10-fold increase in GFP upon the addition of IPTG was used for HTS in a 96-well format.
This reporter line was used to screen two diversified small-molecule libraries developed by ChemBridge Corp., Microformat 04 and DiverSet, each comprising 50,000 compounds. These diversified libraries were rationally chosen by ChemBridge by quantifying pharmacophores in a collection of >500,000 drug-like molecules, using a version of Chem-X software to maximize the pharmacophore diversity. The Microformat 04 collection was designed to complement the chemical space covered by the older DiverSet library. ChemBridge libraries have been successfully used by numerous industrial and academic researchers, in a variety of cell-based and cell-free assays. The ChemBridge libraries were screened at 20 μM concentration, a conventional concentration for cell-based screening of these libraries. 62 of 100,000 ChemBridge compounds were identified by HTS and verified as inhibiting the induction of CMV-GFP expression in response to p21. This low hit rate (0.06%) indicates a high selectivity of our assay.
In this experiment, HT1080 p21-9 cells that express firefly luciferase from a CDKI-responsive promoter of cellular NK4 gene were cultured with IPTG for two days, which is sufficient for near-maximal induction of NK4 (Poole et al., supra).

The test system of test [6] is HT1080-derived reporter cell line. Kind of test: Growth inhibition and cell death in HT1080-derived reporter cell line. The format is cell-based, human. To be noted: cell death detected microscopically by cell detachment. The source says: The combination of p21 and SNX9-class compounds leads to both G1 and G2/M arrest, at the levels expected for the combined effects of p21 and SNX9 (FIG. 6).

`Cc1ccc(S(=O)(=O)N[C@@H](Cc2ccccc2)C(=O)CCl)cc1` [TPCK, reference compound]: the “NFκB activity (p50 or p65 binding to NFκB consensus oligonucleotide)” value in test [1] is “completely blocks NFκB activity”.

With `CC[C@@]1(O)C(=O)OCc2c1cc1n(c2=O)Cc2cc3ccccc3nc2-1` [camptothecin], the “tumor selectivity of growth inhibition, tumor cells vs normal fibroblasts” value in test [2] is recorded as “showed no selectivity”. Also, the “tumor selectivity of growth inhibition, normal vs transformed mammary cells” value in test [3] was “no discrimination between normal and transformed mammary cells”.

Turning to `COc1ccc(CNc2nc(N(CCO)CCO)nc3c2ncn3C(C)C)cc1` [selective inhibitor of CDK2, CVT-313], the “selectivity of growth inhibition for transformed cell lines relative to immortal but untransformed fibroblasts” value in test [4] is “no transformed cell selectivity whatsoever”.

As to `COc1cccc2c1C(=O)c1c(O)c3c(c(O)c1C2=O)C[C@@](O)(C(=O)CO)C[C@@H]3O[C@H]1C[C@H](N)[C@H](O)[C@H](C)O1` [doxorubicin], in test [2], the “tumor selectivity of growth inhibition, tumor cells vs normal fibroblasts” value is listed as “showed no selectivity”. For the same compound, the “tumor selectivity of growth inhibition, normal vs transformed mammary cells” value in test [3] was “no discrimination between normal and transformed mammary cells”.

On to `CN1CC[C@H](c2c(O)cc(O)c3c(=O)cc(-c4ccccc4Cl)oc23)[C@H](O)C1` [flavopiridol], for which, in test [4], the “selectivity of growth inhibition for transformed cell lines relative to immortal but untransformed fibroblasts” value is recorded as “no transformed cell selectivity whatsoever”.

`CCn1cnc2c(Nc3cccc(Cl)c3)nc(N[C@@H]3CCCC[C@@H]3N)nc21` [selective CDK1 inhibitor, CGP74514A]: the “selectivity of growth inhibition for transformed cell lines relative to immortal but untransformed fibroblasts” value in test [4] is “Much lower selectivity for transformed cells”.

On to `NCCc1c[nH]c2ccc(Cl)cc12` [Compound 3], for which the “anti-CDKI pathway activity in the reporter assay (induction of CMV-GFP expression in response to p21)” value in test [5] is reported as “showed anti-CDKI pathway activity in the reporter assay”. Also, the “growth inhibition of the HT1080-derived reporter cell line” value in test [6] is “associated with the induction of both cell death (as detected microscopically by cell detachment) and cell cycle arrest”.

`COc1ccc(OC)c2c(=S)c3ccccc3[nH]c12` [selective inhibitor of CDK4, NSC 625987]: the “selectivity of growth inhibition for transformed cell lines relative to immortal but untransformed fibroblasts” value in test [4] is “no transformed cell selectivity whatsoever”.

Take `COc1cc(Cl)c2[nH]cc(CCN)c2c1` [Compound 4]: the “anti-CDKI pathway activity in the reporter assay (induction of CMV-GFP expression in response to p21)” value in test [5] is listed as “showed anti-CDKI pathway activity in the reporter assay”. Further, the “growth inhibition of the HT1080-derived reporter cell line” value in test [6] was “associated with the induction of both cell death (as detected microscopically by cell detachment) and cell cycle arrest”.

For the compound `CC(=O)O[C@H]1C(=O)[C@@]2(C)[C@H]([C@H](OC(=O)c3ccccc3)[C@]3(O)C[C@H](OC(=O)[C@H](O)[C@@H](NC(=O)c4ccccc4)c4ccccc4)C(C)=C1C3(C)C)[C@]1(OC(C)=O)CO[C@@H]1C[C@@H]2O` [taxol, paclitaxel], the “tumor selectivity of growth inhibition, tumor cells vs normal fibroblasts” value in test [2] was “inhibited all the tumor cells to a greater extent than normal fibroblasts”. Besides, the “tumor selectivity of growth inhibition, normal vs transformed mammary cells” value in test [3] is “clear tumor selectivity”.
